The target in data set [1] is auto-activated mutant protein SHP2 E76K (Homo sapiens (Human), UniProt Q06124, E76K). The data set is described as follows: SHP2 active mutant E76K biochemical assay with and without activating peptide.
Protocol: The inhibition of SHP2 by compounds of the invention was monitored using the surrogate substrate DiFMUP after protein activation by a peptide bearing two appropriately spaced phosphotyrosine. Full length SHP2 protein (Recombinant HumanSHP-2, E. coli derived Ser2Arg593, N-terminal 6His tag from R&D systems; 0.0.24 nM) was incubated with activating peptide, IRSI_2pY (New England Peptide, 140 nM) and DiFMUP (molecular probes, 80 uM) at RT in buffer (HEPES pH 7.2 60 mM, DDT 5 mM, KCl 75 mM, NaCl 75 mM, EDTA 1 mM, Tween 20 0.05%) in presence of compound (10 concentrations range, top concentration 50 μM) for 60 min. The generation of the DiFMU product by activated SHP2 was monitored through Fluorescence measurement with a PerkinElmer Envision reader. The inhibitor dose response curves were analyzed with Genedata Screener.
Data set [2] addresses Full length SHP2 protein (Recombinant Human SHP-2) (Homo sapiens (Human), UniProt Q06124). As to the kind of experiment: SHP2 biochemical assay (DiFMUP substrate, activating peptide IRSI_2pY).
Protocol: The inhibition of SHP2 by compounds of the invention was monitored using the surrogate substrate DiFMUP after protein activation by a peptide bearing two appropriately spaced phosphotyrosine. […] The generation of the DiFMU product by activated SHP2 was monitored through Fluorescence measurement with a PerkinElmer Envision reader. The inhibitor dose response curves were analyzed with Genedata Screener.
A short description of data set [3]: Pharmacokinetics in mouse (oral / intravenous). It is filed as in vivo. Particulars: female CD1 mice; for clearance / Vd: mouse, plasma, intravenous; for Vd: read-out: Vd ss. The procedure:
Female CD1 mice (N=3) received a single oral (gavage) or a single intravenous (bolus) injection of compound. […] Consecutive blood samples were taken sub-lingually under isofluorane inhalation from animals after 0.083 (IV), 0.25, 0.5, 1, 2, 4, 6 and 24 h and were further processed to obtain plasma. Samples were protein precipitated and analysed by LC/MS/MS.

Data set [4] concerns the target Kv11.1 (hERG) ion channel (Homo sapiens (Human), UniProt Q12809). As to the kind of experiment: hERG patch clamp in Kv11.1 transfected HEK293 cells. It is filed as cell-based. The procedure:
Inhibition of the ion channel hErg (or Kv11.1) current causes QT interval prolongation resulting in potentially fatal ventricular tachyarrhythmia called Torsade de Pointes.
hERG ion channel activity was assessed using a patch clamp technique in stable Kv11.1 (hERG) transfected human embryonic kidney cell line (HEK293). Whole cell recordings were carried out with an automated patch clamp device Patchliner™ from Nanion Technologies, Munich following manufacturer recommendation. Different concentrations of the test compound or reference, quinidine, were applied to whole cells suspension and current was measured using a pulse pattern with fixed amplitudes.
A general note: hERG is a cardiac potassium channel; its block is linked to QT prolongation.

The test system of the next data set is pERK1/2 in KYSE520 cells. The data set is described as follows: p-Erk cellular assay in KYSE520 (Mesoscale). It is filed as cell-based. Particulars: read-out: pERK1/2 in Cell KYSE520 IC50. The procedure: p-Erk Cellular Assay in KYSE520: The effect of SHP2 inhibitors on pERK level was assessed using phospho-specific antibody using Mesoscale quantification platform. For measuring change in pERK levels using mesoscale, 30,000 cells of KYSE520 cells were plated in 96-well tissue culture treated plate in 175 μl volume of media. After an overnight incubation at 37° C., various SHP2 inhibitors were added in different concentration to each well maintaining duplicate wells across plates and incubated with compounds for 2 h at 37° C. followed by a wash with ice cold PBS buffer. The cells were then lysed in lysis buffer and processed and analyzed for p-ERK/ERK as per manufacturer's instructions (Mesoscale discovery, cat No. […]-3).

Data set [5] deals with MCP-1 production in U937 cells. The data set is described as follows: Cytokine release assay in U937 cells (MCP-1 AlphaLISA, IL-6 stimulation). The following applies: Homo sapiens, U-937; U937 cells stimulated with IL-6 (50 ng/mL) overnight. It is filed as cell-based. The procedure: Selected compounds were tested in a cytokine release assay in monocytic cells (U937) to test their anti-inflammatory properties. Cells were plated in a 96-well cell culture plate using serum-free media. The cells were treated with indicated concentrations of SHP-2 inhibitors for 30 minutes followed by overnight stimulation with recombinant IL-6 (50 ng/mL). The MCP-1 production was measured in the culture supernatant using a MCP-1 AlphaLISA kit (Perkin Elmer).
For orientation: In Alpha technology, singlet oxygen from a donor bead excites a nearby acceptor bead.

Data set [6] has as its target Recombinant human SHP2 protein (2-593) (Homo sapiens (Human), UniProt Q06124). The data set is described as follows: SPR binding assay. The procedure:
The immobilization buffer contained 20 mM HEPES/NaOH (pH 7.4), 150 mM NaCl, 0.05% Tween 20. Inhibitors (stored as 10 mM stock solutions in 100% DMSO) were diluted in running buffer (20 mM HEPES/NaOH pH 7.4, 150 mM NaCl, 1 mM DTT, 5 mM MgCl2 0.1 mM EGTA, 0.05% Tween 20, 2% DMSO @25° C.) and analysed with a Biacore 4000 (Biacore AB, GE Healthcare Life Sciences, Uppsala, Sweden) using a 2-fold dilution series. The highest compound concentration varied according to the expected dissociation constant, but all compounds were tested at 10 different concentrations. Interaction analysis cycles were run at 30 μL/min and consisted of a 140 s sample injection followed by 600 s of buffer flow (dissociation phase). All sensograms were evaluated by first subtracting the binding response recorded from the control surface (reference spot), followed by subtracting a buffer blank injection. To determine kinetic rate constants, data sets were fitted to a simple 1:1 interaction model including a term for mass transport using numerical integration and nonlinear curve fitting. Equilibrium analysis was performed by fitting the response at the end of the association phase to a single-site binding isotherm.
A general note: Surface plasmon resonance follows binding to a sensor surface in real time, without labels.

Another data set relates to Kyse-520 xenografts. As to the kind of experiment: Kyse-520 xenograft (EGFR amplified esophageal cancer). The text has this:
H2D Rag2 mice were inoculated with 5 million KYSE-520 cells mixed with matrigel.
In vivo efficacy of compound 74a in an EGFR amplified setting was investigated in Kyse-520 xenografts. H2D Rag2 mice were inoculated with 5 million KYSE-520 cells mixed with matrigel.

Another data set relates to U87-MG xenografts. As to the kind of experiment: U87-MG xenograft (PTEN LOF glioblastoma). It is filed as in vivo, mouse. The following applies: CD-1 nude mice, 50 mg/kg daily oral gavage, FIG. 6. The text has this: CD-1 nude mice were inoculated with 10 million U87-MG cells.
In another data set the test system is MiaPaCa-2 xenografts. It is filed as in vivo, mouse. The following applies: H2D Rag2 mice, 50 or 100 mg/kg daily oral gavage. The text has this: H2D Rag2 mice were inoculated with 3 million MiaPaCa-2 cells.
Another data set relates to EBC-1 xenografts. As to the kind of experiment: EBC-1 xenograft (cMET amplified non-small cell lung cancer). The class given is in vivo. Particulars: CD-1 nude mice, 100 mg/kg daily oral gavage. The text has this:
CD-1 nude mice were inoculated with 5 million EBC-1 cells.

The next data set deals with HPAF-2 xenografts. Particulars: CB17.SCID mice, 50 mg/kg 23B or 60 mg/kg RMC-4550 daily oral gavage.
Where [7] appears, read: SHP-2 E76Z IC50 (nM) No peptide, without activating peptide.
Setting [8] is: SHP-2 IC50 (nM) peptide, wild-type SHP-2, with activating peptide.
Setting [9] is: SHP-2 biochemical assay IC50 (μM), activating peptide IRSI_2pY 140 nM, DiFMUP, 60 min.

Entries after “also recorded” stand apart in the source; their conditions may differ. Read-outs that look alike come from different tables or passages of the source.

Chain of auto-activated mutant protein SHP2 E76K (Q06124 whole entry E76K): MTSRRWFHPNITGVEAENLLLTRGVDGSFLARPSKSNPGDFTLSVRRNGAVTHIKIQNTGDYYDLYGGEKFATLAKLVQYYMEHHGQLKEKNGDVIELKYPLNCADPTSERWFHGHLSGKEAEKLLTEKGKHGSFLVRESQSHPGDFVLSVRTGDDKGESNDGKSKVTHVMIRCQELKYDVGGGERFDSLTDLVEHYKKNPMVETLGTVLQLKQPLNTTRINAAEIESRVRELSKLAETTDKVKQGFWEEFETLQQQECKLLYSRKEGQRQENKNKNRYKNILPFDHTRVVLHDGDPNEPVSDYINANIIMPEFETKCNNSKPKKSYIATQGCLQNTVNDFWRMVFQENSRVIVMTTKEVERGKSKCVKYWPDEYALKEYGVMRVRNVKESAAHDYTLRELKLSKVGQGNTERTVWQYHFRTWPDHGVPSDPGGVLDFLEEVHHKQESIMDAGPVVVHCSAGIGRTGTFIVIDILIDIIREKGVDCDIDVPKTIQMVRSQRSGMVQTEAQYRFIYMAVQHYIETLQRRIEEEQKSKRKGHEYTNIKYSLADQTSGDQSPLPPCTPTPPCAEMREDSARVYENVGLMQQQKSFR
Chain of Kv11.1 (hERG) ion channel (Q12809 whole entry): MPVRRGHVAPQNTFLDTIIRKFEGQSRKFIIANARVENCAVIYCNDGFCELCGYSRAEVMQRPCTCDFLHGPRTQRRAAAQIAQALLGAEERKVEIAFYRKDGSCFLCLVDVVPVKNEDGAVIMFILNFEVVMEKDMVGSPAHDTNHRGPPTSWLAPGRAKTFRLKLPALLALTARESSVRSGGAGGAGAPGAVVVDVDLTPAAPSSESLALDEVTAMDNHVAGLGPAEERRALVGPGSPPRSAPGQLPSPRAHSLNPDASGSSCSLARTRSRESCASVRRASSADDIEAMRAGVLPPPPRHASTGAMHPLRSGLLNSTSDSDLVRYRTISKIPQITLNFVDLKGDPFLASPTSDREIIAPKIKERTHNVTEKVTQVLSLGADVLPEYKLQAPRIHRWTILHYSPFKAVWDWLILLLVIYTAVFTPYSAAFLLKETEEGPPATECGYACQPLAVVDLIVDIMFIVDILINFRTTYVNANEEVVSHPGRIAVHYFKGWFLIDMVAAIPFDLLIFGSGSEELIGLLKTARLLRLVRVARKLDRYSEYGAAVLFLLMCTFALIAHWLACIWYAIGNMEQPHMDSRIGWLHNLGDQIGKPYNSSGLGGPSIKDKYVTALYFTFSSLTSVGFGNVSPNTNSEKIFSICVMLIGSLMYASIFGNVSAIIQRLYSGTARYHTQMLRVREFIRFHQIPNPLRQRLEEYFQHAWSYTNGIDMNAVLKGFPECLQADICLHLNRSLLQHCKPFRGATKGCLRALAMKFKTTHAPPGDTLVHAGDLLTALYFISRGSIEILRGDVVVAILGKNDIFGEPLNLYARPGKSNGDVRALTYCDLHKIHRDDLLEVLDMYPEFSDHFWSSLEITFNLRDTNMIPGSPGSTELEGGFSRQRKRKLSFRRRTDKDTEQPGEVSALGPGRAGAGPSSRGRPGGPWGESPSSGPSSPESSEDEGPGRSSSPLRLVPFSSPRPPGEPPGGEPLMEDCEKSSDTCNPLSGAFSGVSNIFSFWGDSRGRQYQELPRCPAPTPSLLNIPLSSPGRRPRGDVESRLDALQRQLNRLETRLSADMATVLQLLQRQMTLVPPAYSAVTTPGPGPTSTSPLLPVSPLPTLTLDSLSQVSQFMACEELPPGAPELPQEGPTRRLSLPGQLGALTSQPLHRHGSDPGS
Chain of Recombinant human SHP2 protein (2-593) (Q06124 2-593): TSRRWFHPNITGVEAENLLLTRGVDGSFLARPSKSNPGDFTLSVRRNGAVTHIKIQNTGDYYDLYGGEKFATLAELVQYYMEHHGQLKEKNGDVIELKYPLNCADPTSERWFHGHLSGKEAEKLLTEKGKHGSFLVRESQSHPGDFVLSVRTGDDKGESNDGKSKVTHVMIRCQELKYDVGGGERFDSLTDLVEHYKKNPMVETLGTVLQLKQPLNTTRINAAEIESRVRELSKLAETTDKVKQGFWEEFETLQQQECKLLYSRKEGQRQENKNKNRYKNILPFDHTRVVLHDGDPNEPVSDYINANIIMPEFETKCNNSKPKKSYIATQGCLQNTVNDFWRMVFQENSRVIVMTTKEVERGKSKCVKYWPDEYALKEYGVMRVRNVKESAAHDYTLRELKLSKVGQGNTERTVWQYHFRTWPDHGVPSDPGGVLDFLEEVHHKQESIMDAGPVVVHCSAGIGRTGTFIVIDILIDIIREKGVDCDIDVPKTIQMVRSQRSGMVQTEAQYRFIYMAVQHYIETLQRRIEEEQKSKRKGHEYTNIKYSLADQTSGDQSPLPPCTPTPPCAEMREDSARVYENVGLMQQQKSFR
Chain of Full length SHP2 protein (Recombinant Human SHP-2) (Q06124 2-593): as above

The Ki is a dissociation constant, usually derived from enzyme kinetics or from competition with a known ligand. Read a high Ki as lower affinity. For the compound `Cc1c(N2CCC3(CC2)Cc2ncccc2[C@H]3N)nc(C)n(-c2cccc(Cl)c2Cl)c1=O` (single isomer, unassigned) [Compound 66b], the IC50 in data set [1] (setting [7]) came to 1.9 nM; in [1] (SHP-2 E76Z IC50 (nM) peptide, with activating peptide IRSI_2pY 140 nM), 1.9 nM; in [2] (setting [8]), 0.7 nM; in [2] (setting [9]), 1 nM; with pERK1/2 in KYSE520 cells (Homo sapiens, KYSE-520, 2 h), 5 nM. For the same compound, in data set [3], the Fz amounted to 100%. The clearance in [3] is 8.33 mL/min/kg. Further, in data set [3], the Vd was 1.96 L/kg. Moreover, the affinity in [4], expressed as Ki, was 7500 nM. Further, in [4] (human), the “Split between hErg and cell activity Ki (patch Clamp)/IC50 (KYSE)” value is 580.
Regarding `Cc1c(N2CCC3(CC2)C[C@@H](C)C[C@H]3N)nc(C)n(-c2cccc(Cl)c2Cl)c1=O` [Compound 77, (3M)-6-[(1R,3R)-1-amino-3-methyl-8-azaspiro[4.5]decan-8-yl]-3-(2,3-dichlorophenyl)-2,5-dimethyl-3,4-dihydropyrimidin-4-one], the IC50 in data set [2] (setting [9]) was determined as 6 nM; in data set [5], 731 nM; in the data set on pERK1/2 in KYSE520 cells (Homo sapiens, KYSE-520, 2 h), 74 nM.
In general, koff refers to the first-order rate constant of dissociation. In general, residence time refers to how long the partners stay bound on average. As to `Cc1c(N2CCC3(CC2)Cc2ccccc2[C@H]3N)nc(C)n(-c2cccc(Cl)c2Cl)c1=O` [Compound 74a, (3M)-6-[(1S)-1-amino-1,3-dihydrospiro[indene-2,4′-piperidin]-1′-yl]-3-(2,3-dichlorophenyl)-2,5-dimethyl-3,4-dihydropyrimidin-4-one], in [6] (SPR, 25° C.), the koff was < 0.0001 s⁻¹ and the residence time is > 160 min. In addition, in data set [3], the Fz is given as 100%, the clearance was 8.33 mL/min/kg and the Vd was determined as 5.1 L/kg. In data set [4], the Ki is 1200 nM; the “Split between hErg and cell activity Ki (patch Clamp)/IC50 (KYSE)” value is 704. Also, in the data set with pERK1/2 in KYSE520 cells (2 h), the IC50 came to 2 nM. The tolerability result in the data set with Kyse-520 xenografts (H2D Rag2 mice, 0.8, 2.5 or 8 mg/kg daily oral gavage) is given as “All doses were well tolerated”.
As usually defined, the Kd is the constant that tells how readily two partners part at equilibrium. For `Cc1c(N2CCC3(CC2)CO[C@@H](C)[C@H]3N)nc(C)n(-c2cccc(Cl)c2Cl)c1=O` (single isomer, unassigned) [Compound 23b], the IC50 came to 21 nM in [1] (setting [7]); 12 nM in [1] (with activating peptide IRSI_2pY 140 nM, read-out: SHP-2 E76Z IC50 (nM) peptide); 12 nM in data set [2] (setting [8]); 9 nM in data set [2] (setting [9]); 94 nM in the data set with pERK1/2 in KYSE520 cells (Homo sapiens, KYSE-520, 2 h). In addition, the Kd in data set [6] stood at 7.14 nM. In the data set on U87-MG xenografts, the “tumor growth / regression” value is reported as “reduces tumor size as compared to baseline; also recorded: Tumor regression”. This compound had a Fz in data set [3] of 100%. This compound had a clearance in data set [3] of 15.5 mL/min/kg. In addition, the Vd in data set [3] was 4.64 L/kg. In addition, the Ki in data set [4] is > 10000 nM. Further, the tolerability result was “All doses were well tolerated” in the data set on MiaPaCa-2 xenografts; “All doses were well tolerated” in the data set with EBC-1 xenografts; “All doses were well tolerated” in the data set on HPAF-2 xenografts; “All doses were well tolerated” with Kyse-520 xenografts (H2D Rag2 mice, 10, 30 or 100 mg/kg daily oral gavage). Also, the tumor growth inhibition entry with EBC-1 xenografts (FIG. 7) is recorded as “reduces tumor growth; also recorded: Significant tumor growth inhibition”; in the data set with Kyse-520 xenografts (H2D Rag2 mice, 10, 30 or 100 mg/kg daily oral gavage, FIG. 2) it was “multiple dosage levels reduce growth of the tumor a significant amount; also recorded: dose-dependent significant tumor growth inhibition”. The tumor inhibition entry in the data set with HPAF-2 xenografts (FIG. 5) is given as “Significant tumor inhibition”.

These data come from patent US11001561B2, “Pyrimidinone derivatives as SHP2 antagonists” (MERCK PATENT GMBH, priority 2019, dated 2021).
